Assay results published in patent US11311593B2, “Root extracts from plants of the Morus genus and uses of same” (PLANT ADVANCED TECHNOLOGIES PAT, priority 2017, dated 2022).
“Also recorded” adds a separate entry of the source.

Experiments:
fungal tyrosinase [1] = assay: Anti-tyrosinase inhibiting activity, L-tyrosine as substrate, dopachrome at 475 nm; type: biochemical
Method: Morus alba plants were cultivated aeroponically for 8 weeks with a 15/10/30 (N/P/K) culture medium and with an electroconductivity in the range 1.0 and 1.2 mS/cm. The roots were chopped, dried, crushed and macerated in pure ethanol in a ratio of 1 mL of ethanol for 20 mg dry matter in accordance with the protocol described in Example 1. The sample was centrifuged at 21000 g for 10 minutes in order to separate the solid material. The anti-tyrosinase inhibiting activity of the supernatant was measured using L-tyrosine as the substrate. Tyrosinase catalyzes the conversion of L-tyrosine to dopaquinone, which is spontaneously converted into dopachrome. This latter absorbs strongly in the visible range of the electromagnetic spectrum (at 475 nm). The activity of the tyrosinase was measured by following the enzymatic conversion of the colorless L-tyrosine into orange dopachrome with the aid of a microplate reader.
The anti-tyrosinase activity of the supernatant was measured by mixing the following components: 150 μL of the solution of L-tyrosine (1.5 mM) in 50 mM sodium phosphate buffer, pH 6.8; 40 μL of supernatant diluted 2- to 800-fold in ethanol was tested as the inhibitor solution. The enzymatic conversion was initialized by adding a volume of 10 μL of fungal tyrosinase (0.2 mg/mL in a 50 mM sodium phosphate buffer, pH 6.8). The “control” experiment was carried out in the same manner, replacing the supernatant with pure ethanol.
Two root extracts of Morus alba were prepared in accordance with the protocol described in Example 1. The measurement of the anti-tyrosinase inhibiting activity was carried out in accordance with the protocol described in Example 2.1 with 40 μL of each of the two extracts diluted 100-fold or 200-fold in pure ethanol.
The measurement of the anti-tyrosinase inhibiting activity was carried out in accordance with the protocol described in Example 2.1.

fungal tyrosinase [2] = assay: Target Binding affinity test for tyrosinase (UPLC-MS of bound ligands); conditions: for Relative affinity (RA) for tyrosinase: ligands in non-stimulated M. alba root extract, moracenin B = reference ligand
Excerpt: It is based on the principle of bringing the ligands and the target into contact in the liquid phase so that the ligands that have the greatest affinity with the target bind to it, elimination of the ligands that are not fixed, separation of the complexes in order to recover the ligands which have been fixed, then quantification of the latter. In a first step of the method, the extract and the target are mixed. The compounds of the extract compete for access to the binding sites of the target. The strongest compounds displace the weakest and are retained more effectively by the target. […] A reference sample was also prepared by diluting the sample to be analyzed 10-fold in a solution of water and a quarter of the volume of acetonitrile. […] Pre-conditioning step-Wells with a filtering membrane were pre-conditioned with a volume of 500 μL of an 85% solution of ammonium acetate and 15% of ethanol which was passed through the membrane by centrifuging at 14000 g for 60 seconds. 2. […] 3. Washing step-The mixture of the enzyme and the sample to be analyzed was deposited in a well that had been pre-conditioned in the pre-conditioning step, then centrifuged at 14000 g until most of the solvent had been eliminated. […] This procedure was repeated three times and eliminated all of the compounds that were not bound to the enzyme. 4. Separation step-The enzyme-ligand complexes retained in the filter were re-suspended in a volume of 10 μL of ultra-pure water, then mixed with a volume of 40 μL of acetonitrile in order to denature and precipitate the enzyme and, at the same time, to liberate the ligands. The mixture was centrifuged at 21000 g for 10 min in order to separate the precipitate from the supernatant. 5. Analysis step-Said supernatant was analyzed by liquid phase chromatography coupled to a mass spectrometer, also known by the acronym UPLC-MS. The reference sample was also analyzed in the same manner, using the same analytical conditions. The UPLC-MS analysis was carried out in accordance with the protocol described in Example 1. The chromatograms obtained are presented in FIGS. 3A and 3B and represent a signal intensity as a function of retention time in a column. […] Each peak is associated with one of the ligands present in the analyzed extract. The quantity associated with each ligand corresponds to the area of the peak. […] For each ligand, an affinity ratio, RACEi, was calculated as follows: [formula] where: NF is a normalization factor; […] the intensity of the analytical signal for the ligand CEi in the reference sample; ISeq,REF is the intensity of the analytical signal for the reference ligand REF (here, moracenin B) in the reference sample; […] the intensity of the analytical signal for the ligand CEi in the treated solution (the sample to be analyzed after steps 2 to 4 for binding and separation of the ligands) for the detached ligands; ISTB,REF is the intensity of the analytical signal for the reference ligand REF (here, moracenin B) in the treated solution (the sample to be analyzed after steps 2 to 4 for binding and separation of the ligands) for the detached ligands; RA, CEi is the relative affinity ratio (RA), representing an affinity of the ligand CEi for the target. The value of the ratio increases with affinity.

[3] = test system: collagenase obtained from Clostridium Histolyticum; assay: Target Binding affinity test for collagenase; conditions: ligands in non-stimulated M. alba root extract; moracenin B = reference ligand
Method: A root extract of Morus alba was prepared in accordance with the protocol described in Example 2.1. The Target Binding® method used was that of Example 2.3 which is described in patent application FR 1 670 545. The experimental protocol was as follows:
The target, a 6.25 mg/mL solution of collagenase obtained from Clostridium histolyticum, was prepared by dissolving lyophilized enzyme powder in 50 mM saline phosphate buffer with a pH of 7.5. The sample to be analyzed corresponded to the supernatant of the root extract obtained in accordance with Example 2.1. It could be centrifuged once again before use, at 21000 g for 15 min, in order to remove any traces of solid particles. A reference sample was also prepared by diluting the sample to be analyzed 10-fold in a solution of water and a quarter of the volume of acetonitrile.
1. Preconditioning step—Wells with a filtering membrane were preconditioned with a volume of 500 μL of a saline phosphate buffer which was passed through the membrane by centrifuging at 14000 g for 60 seconds.
2. Binding step—A volume of 92.5 μL of the solution obtained from the pretreatment step was mixed with 7.5 μL of the sample to be analyzed for 10 min in a plastic Eppendorf tube.
3. Washing step—The mixture of the enzyme and the sample to be analyzed was deposited in a well that had been preconditioned in the preconditioning step, then centrifuged at 14000 g until most of the solvent had been eliminated. The enzyme-ligand complexes remained on the surface of the filter membrane, then were re-suspended in a volume of 100 μL of the same saline phosphate buffer solution and centrifuged at 14000 g until the solvent had been eliminated. This procedure was repeated three times and eliminated all of the compounds that were not bound to the enzyme. 4. Separation step—The enzyme-ligand complexes retained in the filter were re-suspended in a volume of 10 μL of ultra-pure water then mixed with a volume of 30 μL of acetonitrile in order to denature and precipitate the enzyme and, at the same time, to liberate the ligands. The mixture was centrifuged at 21000 g for 10 min in order to separate the precipitate from the supernatant. 5. Analysis step—Said supernatant was analyzed by liquid phase chromatography coupled to a mass spectrometer. The reference sample was also analyzed in the same manner, using the same analytical conditions.
The UPLC-MS analysis was carried out in accordance with the protocol described in Example 1.

SMILES	% inhibition of tyrosinase (fungal tyrosinase [1]; purified compound, 2.5 μM) [%]	% inhibition of tyrosinase (fungal tyrosinase [1]; purified compound, 5 μM) [%]	% inhibition of tyrosinase (fungal tyrosinase [1]; purified compound, 20 μM) [%]	Relative affinity (RA) for tyrosinase (fungal tyrosinase [2])	Relative affinity (RA) for collagenase [3]	rank of tyrosinase inhibiting activity among the 4 purified compounds (in words) (fungal tyrosinase [1]; 2.5, 5 and 20 μM)	inhibition of tyrosinase (fungal tyrosinase [1]; purified compound, 3.2 mg/L) [%]	affinity for tyrosinase compared with the other compounds of the extract (in words) (fungal tyrosinase [2]; peak areas of FIG. 3B / relative affinities)
CC(C)=CCc1c(O)ccc(C(=O)[C@@H]2CC(C)=C[C@H](c3c(O)cc(O)c4c(=O)c(CC=C(C)C)c(-c5ccc(O)cc5O)oc34)[C@H]2c2ccc(O)cc2O)c1O [Moracenin A, moracenin A]	18.9	27.7	59.0	5.1	1.1	–	–	–
CC(C)=CCc1c(-c2ccc(O)cc2O)oc2c([C@H]3C=C(C)C[C@H](C(=O)c4ccc(O)cc4O)[C@@H]3c3ccc(O)cc3O)c(O)cc(O)c2c1=O [Moracenin B, moracenin B]	22.6	33.5	69.7	1.0	1.0	–	–	–
CC(C)=CCc1c(O)ccc(C(=O)C2C(c3ccc(O)cc3O)CC3(C)CC2c2c(O)cc(-c4cc5ccc(O)cc5o4)cc2O3)c1O (stereo not drawn) [Wittiorumin F, wittiorumin F]	35.7	52.9	75.1	15.5	1.1	best inhibiting activity	52.9	greater affinity; also recorded: higher affinity
